Measured values as given in PubChem BioAssay (NCI).
Values joined by “and” are separate entries in the source; they are usually repeats but may differ in a detail not shown here. Equal entries are not always repeated.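 How tested: cells in 96-well plates exposed to compound for 48 hours at five concentrations. Here, GI50 denotes the concentration required for 50% inhibition of growth. TGI denotes the concentration required for complete inhibition of growth.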

How the values were obtained:
Test in all cases: NCI tumour cell line growth inhibition, 48 h
[1] = system: SNB-75 CNS
[2] = system: BT-549 breast
[3] = system: UO-31 renal
[4] = system: HS 578T breast
[5] = system: DU-145 prostate
[6] = system: T-47D breast
[7] = system: MALME-3M melanoma
[8] = system: SF-268 CNS
[9] = system: CCRF-CEM leukemia
[10] = system: MDA-MB-435
[11] = system: HCT-15 colon
[12] = system: TK-10 renal

Compound	TGI [1]	TGI [2]	TGI [3]	TGI [4]	TGI [5]	TGI [6]	TGI [7]	TGI [8]	TGI [9]	TGI [10]	TGI [11]	TGI [12]	GI50 [1]	GI50 [3]	GI50 [4]	GI50 [9]
S=C1CC(c2ccc(Cl)cc2)Sc2ccccc2N1 (centres undefined)	> 10 µM	> 100 µM	> 100 µM	40 µM	> 100 µM	> 100 µM	> 100 µM	79.3 µM	> 100 µM	> 100 µM	> 100 µM	> 100 µM	–	–	–	–
Cc1nc2ccccc2n1CCc1nc2ccccc2s1	> 100 µM	> 100 µM	–	> 100 µM	> 100 µM	> 100 µM	> 100 µM	> 100 µM	> 100 µM	> 100 µM	> 100 µM	> 100 µM	–	–	–	–
COc1ccc(CNc2nc3ccccc3nc2-c2cccs2)cc1	> 100 µM	95.4 µM	71.1 µM	99.8 µM	> 100 µM	> 100 µM	> 100 µM	> 100 µM	> 100 µM	> 100 µM	> 100 µM	> 100 µM	–	–	–	–
O=c1[nH]cnc2c1ncn2[C@H]1CO[C@@H](CO)[C@@H]1O	> 100 µM	> 100 µM	> 100 µM	> 100 µM	> 100 µM	> 100 µM	> 100 µM	> 100 µM	> 100 µM	> 100 µM	> 100 µM	> 100 µM	–	–	–	–
Cn1c(N/N=C/c2ccc(Cl)cc2)nc(-c2ccc(Cl)cc2)c(C#N)c1=O	73.2 µM	67.5 µM	33 µM	86.4 µM	46.1 µM	> 100 µM	91.7 µM	> 100 µM	> 100 µM	> 100 µM	> 100 µM	76.3 µM	–	–	–	–
CC(=O)Nc1ccc(Nc2nc(=O)[nH]c(=O)[nH]2)cc1	> 100 µM	> 100 µM	> 100 µM	> 100 µM	> 100 µM	> 100 µM	> 100 µM	> 100 µM	> 100 µM	> 100 µM	> 100 µM	> 100 µM	–	–	–	–
CN(C)CCOc1ccc(-c2c(Oc3ccc(Cl)cc3)c(=O)oc3ccccc23)cc1	25.3 µM	28.3 µM	> 28.9 µM	24.8 µM	45.5 µM	> 100 µM	25.3 µM	29.5 µM	> 29 µM	> 31.2 µM	22.8 µM	29.9 µM	–	–	–	–
Cc1nn(-c2ccccc2)c(C)c1/C=N/NC(=O)c1sc(=S)n(-c2ccccc2)c1N	3.98 µM	> 100 µM	> 100 µM	8.46 µM	> 100 µM	> 100 µM	> 100 µM	> 100 µM	> 100 µM	> 100 µM	> 100 µM	7.19 µM	–	–	–	–
CC1CC[C@]2(C(=O)O)CCC3(C)C(=C2[C@H]1C)C=CC1[C@@]2(C)CC[C@H](O)C(C)(C)C2CC[C@]13C (some centres undefined)	73.1 µM	> 100 µM	–	> 100 µM	42.4 µM	58.9 µM	73.2 µM	> 100 µM	> 100 µM	> 100 µM	> 100 µM	> 100 µM	–	–	–	–
Fc1cccc2nc(-c3ccccc3)cc(OCc3ccccc3)c12	> 100 µM	> 100 µM	> 100 µM	> 100 µM	> 100 µM	> 100 µM	> 100 µM	> 100 µM	> 100 µM	> 100 µM	> 100 µM	> 100 µM	–	–	–	–
O=[N+]([O-])C(=C(NCc1ccccc1)NCc1ccccc1)C(Cl)=C(Cl)Cl	43.5 µM	> 100 µM	> 100 µM	> 100 µM	> 100 µM	92.9 µM	55.7 µM	69.4 µM	50.7 µM	46.7 µM	62.8 µM	> 100 µM	–	–	–	–
CN(C)c1ccc(C(c2ccc(N(C)C)cc2)c2ccc([N+](=O)[O-])cc2)cc1	–	> 100 µM	> 100 µM	> 100 µM	> 100 µM	> 100 µM	> 100 µM	> 100 µM	> 100 µM	> 100 µM	> 100 µM	> 100 µM	–	–	–	–
O=C1CSC2(CCN(CCCN3c4ccccc4Sc4ccc(Cl)cc43)CC2)N1	20.1 µM	26.1 µM	19.5 µM	51.9 µM	24.2 µM	15.6 µM	24.4 µM	26.6 µM	–	23.5 µM	20.8 µM	21.2 µM	–	–	–	–
CC1=Nn2c(nc3sc4c(c3c2=O)CCCC4)SC1	> 100 µM	> 100 µM	> 100 µM	> 100 µM	> 100 µM	> 100 µM	> 100 µM	> 100 µM	> 76.3 µM	> 100 µM	> 100 µM	> 100 µM	–	–	–	–
NNC(=O)c1ccccc1NC(=O)/C(=C/c1ccccc1)NC(=O)c1ccccc1	> 100 µM	> 100 µM	> 100 µM	> 100 µM	> 100 µM	> 100 µM	> 100 µM	> 100 µM	> 100 µM	> 100 µM	> 100 µM	> 100 µM	–	–	–	–
COc1cccc(C2c3cc4c(cc3OC(N3CCOCC3)C2C)OCO4)c1O (centres undefined)	> 100 µM	76.1 µM	54.3 µM	6.39 µM	26.6 µM	36.4 µM	> 78.6 µM	> 79.1 µM	35.3 µM	6.57 µM	27.9 µM	83.6 µM	–	–	–	–
COc1ccc2nc3c([N+](=O)[O-])ccc4c3c(c2c1)NCCN4C	–	11.4 µM	2.82 µM	5.21 µM	6.92 µM	7.73 µM	2.6 µM	7.63 µM	> 100 µM	2.4 µM	2.96 µM	51.9 µM	–	–	–	–
CC1=C(C#N)S(=O)(=O)c2c(oc(C)c2C)N1	> 100 µM	> 100 µM	> 100 µM	> 100 µM	> 100 µM	> 100 µM	> 100 µM	> 100 µM	–	> 100 µM	> 100 µM	> 100 µM	–	–	–	–
Cc1ccc2c3c1O[C@H]1c4nc5ccccc5cc4C[C@@]4(O)[C@@H](C2)N(CC2CC2)CC[C@]314	–	25.5 µM	22.2 µM	24.7 µM	69 µM	32.2 µM	28.2 µM	25.6 µM	22.3 µM	23.5 µM	18.2 µM	54.6 µM	–	–	–	–

Compound	TGI [1]	TGI [2]	TGI [3]	TGI [4]	TGI [5]	TGI [6]	TGI [7]	TGI [8]	TGI [9]	TGI [10]	TGI [11]	TGI [12]	GI50 [1]	GI50 [3]	GI50 [4]	GI50 [9]
C=C[C@H]1CN2CC[C@H]1C[C@@H]2[C@@H](O)c1ccnc2ccccc12	> 100 µM	> 100 µM	> 100 µM	8.28 µM	> 100 µM	> 100 µM	> 100 µM	> 100 µM	–	> 100 µM	> 100 µM	> 100 µM	–	–	–	–
CCOC(=O)/C(=C\c1ccc(CO)o1)P(=O)(OCC)OCC	> 100 µM	45 µM	–	> 100 µM	> 100 µM	> 100 µM	50 µM	75.8 µM	–	86.9 µM	33.2 µM	> 100 µM	–	–	–	–
COc1ccc(N=C/C=C/Nc2ccc(OC)cc2)cc1	33.1 µM	9.34 µM	10.8 µM	38.8 µM	32.9 µM	35.3 µM	23.9 µM	21.3 µM	> 37.2 µM	24 µM	14.9 µM	27.4 µM	–	–	–	–
CC(=O)Oc1ccc2c(c1)CC[C@@H]1C2[C@@H](O[N+](=O)[O-])C[C@@]2(C)C1CC[C@@H]2O (some centres undefined)	> 85.2 µM	> 100 µM	> 100 µM	51.1 µM	> 87.2 µM	> 100 µM	> 100 µM	> 83 µM	> 83.2 µM	56.2 µM	> 100 µM	> 100 µM	–	–	–	–
CN(C)c1ccc(/C=N/NC2=N/C(=C\c3ccco3)C(=O)N2)cc1	> 100 µM	> 100 µM	> 100 µM	> 100 µM	> 100 µM	> 100 µM	> 100 µM	> 100 µM	> 100 µM	> 100 µM	> 100 µM	> 100 µM	–	–	–	–
NC1CCC(c2cc3ccccc3s2)(N2CCCCC2)CC1 (centres undefined)	25.2 µM	3.08 µM	5.94 µM	20.5 µM	16.4 µM	5.51 µM	7.79 µM	15.8 µM	2.45 µM	2.63 µM	3.76 µM	19 µM	–	–	–	–
CN(C)Cc1cc(C(=O)O)cc(CN(C)C)c1O	> 100 µM	> 100 µM	> 100 µM	> 100 µM	> 100 µM	> 100 µM	> 100 µM	> 100 µM	> 100 µM	> 100 µM	> 100 µM	> 100 µM	–	–	–	–
Cc1ccc2[nH]c(=O)c(-c3cnc(=O)[nH]n3)c(O)c2c1	> 100 µM	> 100 µM	> 100 µM	> 100 µM	> 100 µM	> 100 µM	> 100 µM	> 100 µM	> 100 µM	> 100 µM	> 100 µM	> 100 µM	–	–	–	–
O=C1/C(=C/c2cccs2)N=C(c2ccccc2)N1C1Nc2cc3c(cc2S1)NC(N1C(=O)/C(=C/c2cccs2)N=C1c1ccccc1)S3 (centres undefined)	83.2 µM	35.1 µM	> 100 µM	61.5 µM	> 100 µM	> 100 µM	–	47.5 µM	–	42.6 µM	34.7 µM	> 100 µM	–	–	–	–
COC1C(O)=C2C(=O)OC(C)(O)/C=C/C=C\C=C/C=C/C(c3ccccc3)NC(=O)/C=C/C=C/C=C/C=C/C2(C)C1O (centres undefined)	0.131 µM and 0.0786 µM	0.168 µM	0.0846 µM and 0.175 µM	0.192 µM and 0.246 µM	0.0769 µM and 0.123 µM	0.0707 µM	0.16 µM	0.156 µM and 0.127 µM	–	0.142 µM	0.0526 µM	0.0668 µM	0.0145 µM	0.0252 µM	0.0115 µM	< 0.001 µM
CO[P@]1(=O)O[C@@H](c2ccccc2)[C@H](O)[C@]1(O)c1ccccc1	> 100 µM	> 100 µM	> 100 µM	> 100 µM	> 100 µM	> 100 µM	> 100 µM	> 100 µM	> 100 µM	> 100 µM	> 100 µM	> 100 µM	–	–	–	–
CN(C)Cc1cc(N=Nc2ccc(Cl)c(Cl)c2)ccc1O	20.3 µM	27 µM	11.9 µM	21.9 µM	17.6 µM	23.2 µM	29.6 µM	18.7 µM	20 µM	23.9 µM	19.1 µM	22.9 µM	–	–	–	–
COc1ccc(CN=CN/C(C#N)=C(\N)C#N)cc1OC	> 100 µM	> 100 µM	> 100 µM	> 100 µM	> 100 µM	> 100 µM	> 100 µM	> 100 µM	> 100 µM	> 100 µM	> 100 µM	> 100 µM	–	–	–	–
COc1ccc(-c2cn3c(n2)sc2cc(C)ccc23)cc1	37.3 µM	87.4 µM	> 100 µM	67.5 µM	> 100 µM	> 100 µM	> 100 µM	78.7 µM	> 100 µM	63.2 µM	> 100 µM	47.3 µM	–	–	–	–
c1ccc2c(c1)SC1Sc3ccccc3[S+]21 (centres undefined)	> 100 µM	37.2 µM	50.9 µM	> 100 µM	> 76.3 µM	> 100 µM	15.5 µM	39.8 µM	49.6 µM	60.9 µM	> 79.5 µM	55.4 µM	–	–	–	–
COc1cc2[nH]c(-c3ccccc3)cc(=O)c2cc1OC	> 87.1 µM	> 100 µM	> 100 µM	> 100 µM	> 100 µM	> 100 µM	> 100 µM	> 100 µM	> 65.6 µM	12.2 µM	97.9 µM	98.7 µM	–	–	–	–
CC1(C)N=C(N)N=C(N)N1c1cccc(CSc2ccccc2)c1	43.8 µM	> 100 µM	> 100 µM	68 µM	> 100 µM	> 100 µM	> 100 µM	> 100 µM	–	> 100 µM	> 100 µM	> 100 µM	–	–	–	–
c1ccc(N=NNNc2ccc(-c3nc4ccccc4[nH]3)cc2)cc1	88.7 µM	76.8 µM	> 100 µM	89.1 µM	> 100 µM	39.1 µM	77.3 µM	–	56.1 µM	> 100 µM	> 100 µM	> 100 µM	–	–	–	–
O=C(CSC1=NCCN1)c1ccccc1	> 100 µM	> 100 µM	> 100 µM	> 100 µM	> 100 µM	> 100 µM	> 100 µM	> 100 µM	–	> 100 µM	> 100 µM	> 100 µM	–	–	–	–
